Target: recombinant human PAI-1 (Homo sapiens, UniProt P05121)
Experiment: Test Example 2: Human PAI-1 Inhibitory Activity (pH 7.4 HEPES buffer, 10 minutes incubation with two-chain tPA)
Assay type: biochemical
Parameters: purchased Molecular Innovations, Inc
Conditions: read-out: Inhibition Rate of PAI-1 Activity (%)
Experimental: 0.1 M HEPES, 0.1 M NaCl. 1 mM EDTA. 0.1 % Polyethylene glycol 8,000 (Hampton Research Corporation),
2 mM Dimethyldecylphoshine oxide [Apo-10] (Fluka Corporation)

Sequence of recombinant human PAI-1 (P05121 24-402): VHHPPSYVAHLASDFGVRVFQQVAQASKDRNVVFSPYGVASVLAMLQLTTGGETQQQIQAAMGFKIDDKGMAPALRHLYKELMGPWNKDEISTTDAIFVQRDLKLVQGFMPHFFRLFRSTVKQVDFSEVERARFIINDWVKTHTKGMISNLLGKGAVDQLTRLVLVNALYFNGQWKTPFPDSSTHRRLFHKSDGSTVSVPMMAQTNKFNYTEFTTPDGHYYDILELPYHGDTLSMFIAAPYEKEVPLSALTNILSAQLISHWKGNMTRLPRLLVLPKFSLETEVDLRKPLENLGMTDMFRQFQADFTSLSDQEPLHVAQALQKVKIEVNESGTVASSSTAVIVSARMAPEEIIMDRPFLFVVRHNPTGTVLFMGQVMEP

Structure (SMILES) | inhibition at 0.1 µM | inhibition at 0.3 µM | inhibition at 1 µM | inhibition at 3 µM | inhibition at 10 µM | inhibition at 25 µM
CCCCCCCCOc1ccc(-c2ccc(OC(F)(F)F)cc2)cc1N(CCCCc1ccccc1)C(=O)C(=O)O [Compound 353] | 6% | 19% | 87% | 87% |  | 
O=C(O)C(=O)N(CCCCc1ccccc1)c1cc(-c2ccc(OC(F)(F)F)cc2)ccc1OCCCCc1ccccc1 [Compound 354] | 5% | 10% | 91% | 89% |  | 
CC(C)(C)c1ccc(Oc2cc(-c3cccc(C(F)(F)F)c3)ccc2CCC(=O)O)cc1 [Compound 332] | 12% | 4% | 29% | > 99% |  | 
CC(C)(C)c1cccc(Oc2cc(-c3ccc(OC(F)(F)F)cc3)ccc2/C=C/C(=O)O)c1 [Compound 335] | 4% | 8% | 80% | > 99% |  | 
COc1ccc(-c2ccc(OC(F)(F)F)cc2)cc1N(CCCCc1ccccc1)C(=O)C(=O)O [Compound 651] | 0% | 0% | 15% | 74% |  | 
CCCCc1ccc(Oc2cc(-c3ccc(OC(F)(F)F)cc3)ccc2/C=C/C(=O)O)cc1 [Compound 511] | 11% | 68% | > 99% | > 99% |  | 
CC(C)(C)c1ccc(Oc2cc(-c3cc(Cl)ccc3Cl)ccc2/C=C/C(=O)O)cc1 [Compound 483] | 0% | 8% | 76% | > 99% |  | 
CCCCCOc1ccc(-c2ccc(OC(F)(F)F)cc2)cc1N(CCCCc1ccccc1)CC(=O)O [Compound 640] | 0% | 19% | 92% | 92% |  | 
CC(C)(C)c1ccc(CN(C(=O)C(=O)O)c2ccc(C(=O)Nc3ccc(OC(F)(F)F)cc3)cc2)cc1 [Compound 617] |  |  | 6% | 64% | > 99% | > 99%
CC(C)(C)c1ccc(Oc2cc(-c3ccc(C(F)(F)F)cc3)ccc2OCC(=O)O)cc1 [Compound 330] | 0% | 1% | 47% | 96% |  | 
CCCCCCCOc1cc(N(CCCCc2ccccc2)C(=O)C(=O)O)ccc1-c1ccc(OC(F)(F)F)cc1 [Compound 650] | 16% | 40% | > 99% | > 99% |  | 
CC(C)c1ccc(Oc2cc(-c3ccc(OC(F)(F)F)cc3)ccc2OCC(=O)O)cc1 [Compound 333] | 4% | 10% | 28% | 91% |  | 
CCC(CC)Oc1ccc(-c2ccc(OC(F)(F)F)cc2)cc1N(CCCCc1ccccc1)C(=O)C(=O)O [Compound 369] | 0% | 8% | 70% | 95% |  | 
CCCCCCCOc1ccc(N(CCCCc2ccccc2)C(=O)C(=O)O)cc1-c1ccc(OC(F)(F)F)cc1 [Compound 394] | 13% | 69% | 98% | > 99% |  | 
CCCCCCCCCCCCCCCOc1ccc(-c2ccc(OC(F)(F)F)cc2)cc1N(CCCCc1ccccc1)C(=O)C(=O)O [Compound 375] | 73% | 97% | > 99% | 79% |  | 
CCCCCOc1ccc(-c2ccc(OC(F)(F)F)cc2)cc1N(CCCOCc1ccccc1)C(=O)C(=O)O [Compound 655] | 3% | 0% | 44% | 97% |  | 
O=C(O)C(=O)N(CCCCc1ccccc1)c1ccc(N2CCCC2)c(-c2ccc(OC(F)(F)F)cc2)c1 [Compound 673] | 0% | 15% | > 99% | > 99% |  | 
CC(C)(C)c1ccc(CN(C(=O)CC(=O)O)c2ccc(-c3ccc(OC(F)(F)F)cc3)cc2)cc1 [Compound 608] |  |  | 11% | 59% | 95% | 95%
O=C(O)C(=O)N(Cc1ccc(-c2ccc(OC(F)(F)F)cc2)cc1)c1ccccc1 [Compound 611] |  |  | 5% | 13% | 45% | 81%
CCCCCOc1ccc(-c2ccc(OC(F)(F)F)cc2)cc1N(CCCCc1ccc(Cl)cc1)C(=O)C(=O)O [Compound 384] | 0% | 11% | 91% | 95% |  | 
CCCCCCCCCOc1cc(-c2ccc(OC(F)(F)F)cc2)ccc1N(CCCCc1ccccc1)C(=O)C(=O)O [Compound 380] | 76% | 96% | 97% | > 99% |  | 
CCCCCCCOc1cc(-c2ccc(OC(F)(F)F)cc2)ccc1N(CCCCc1ccccc1)C(=O)C(=O)O [Compound 386] | 5% | 18% | > 99% | > 99% |  | 
Cc1cc(C)cc(COc2ccc(-c3ccc(OC(F)(F)F)cc3)cc2N(CCCCc2ccccc2)C(=O)C(=O)O)c1 [Compound 662] | 18% | 28% | 98% | 95% |  | 

Results, then the molecule that gave them:

inhibition at 0.1 µM | inhibition at 0.3 µM | inhibition at 1 µM | inhibition at 3 µM | inhibition at 10 µM | inhibition at 25 µM | Structure (SMILES)
21% | 18% | 63% | > 99% |  |  | CC(C)(C)c1ccc(Oc2cc(-c3ccc(Cl)cc3)ccc2OCC(=O)O)cc1 [Compound 457]
5% | 20% | > 99% | > 99% |  |  | O=C(O)COc1ccc(-c2ccc(OC(F)(F)F)cc2)cc1Oc1ccc(OCc2ccccc2)cc1 [Compound 492]
3% | 16% | 87% | > 99% |  |  | CC(C)(C)c1ccc(Oc2cc(-c3ccc4ccccc4c3)ccc2CCC(=O)O)cc1 [Compound 470]
4% | 0% | 25% | 97% |  |  | CC(C)(C)c1ccc(Oc2ccc(Nc3ccc(OC(F)(F)F)cc3)cc2CCC(=O)O)cc1 [Compound 432]
5% | 7% | 11% | 49% |  |  | CC(C)(C)c1ccc(Oc2cc(-c3ccc(C#N)cc3)ccc2OCC(=O)O)cc1 [Compound 471]
0% | 2% | 81% | > 99% |  |  | CC(C)(C)c1ccc(Cc2cc(-c3ccc(OC(F)(F)F)cc3)ccc2OCC(=O)O)cc1 [Compound 550]
13% | 27% | 97% | 93% |  |  | CC(C)(C)c1ccc(Oc2cc(-c3cccc(OC(F)(F)F)c3)ccc2/C=C/C(=O)O)cc1 [Compound 503]
3% | 13% | 84% | > 99% |  |  | CC(C)(C)c1ccc(Oc2cc(-c3ccc(C(C)(C)C)cc3)ccc2OCC(=O)O)cc1 [Compound 446]
18% | 36% | 92% | 94% |  |  | CCCCN(CC(=O)O)c1cc(-c2ccc(OC(F)(F)F)cc2)ccc1Oc1ccc(C(C)(C)C)cc1 [Compound 428]
1% | 19% | > 99% | > 99% |  |  | CC(C)c1ccc(-c2ccc(CCC(=O)O)c(Oc3ccc(C(C)(C)C)cc3)c2)cc1 [Compound 519]
9% | 24% | 87% | 92% |  |  | Cc1cc(C)cc(Oc2cc(-c3ccc(C(C)(C)C)cc3)ccc2/C=C/C(=O)O)c1 [Compound 494]
0% | 3% | 14% | 81% |  |  | CC(C)(C)c1ccc(COc2ccc(-c3ccc(OC(F)(F)F)cc3)cc2C(=O)O)cc1 [Compound 421]
10% | 8% | 28% | 84% |  |  | Cc1cccc(-c2ccc(Oc3ccc(C(C)(C)C)cc3)c(OCC(=O)O)c2)c1 [Compound 316]
2% | 6% | 73% | > 99% |  |  | CC(C)(C)c1ccc(Oc2cc(-c3ccccc3OC(F)(F)F)ccc2CCC(=O)O)cc1 [Compound 467]
13% | 26% | 91% | > 99% |  |  | CC(C)(C)c1ccc(Oc2cc(-c3cccc(OC(F)(F)F)c3)ccc2CCC(=O)O)cc1 [Compound 504]
23% | 22% | 84% | > 99% |  |  | CC(C)(C)c1ccc(C(=O)c2cc(-c3ccc(OC(F)(F)F)cc3)ccc2OCC(=O)O)cc1 [Compound 549]
0% | 6% | 11% | 69% |  |  | CC(C)(C)c1ccc(Oc2cc(-c3cccc([N+](=O)[O-])c3)ccc2OCC(=O)O)cc1 [Compound 485]
25% | 82% | > 99% | > 99% |  |  | CCC(CC)Oc1ccc(-c2ccc(/C=C/C(=O)O)c(Oc3ccc(C(C)(C)C)cc3)c2)cc1 [Compound 521]
6% | 26% | 95% | > 99% |  |  | CCCCCOc1ccc(-c2ccc(OC(F)(F)F)cc2)cc1CN(C(=O)C(=O)O)c1ccc(C(C)(C)C)cc1 [Compound 645]
